US10829520B2, “Beta-hairpin peptidomimetics” (POLYPHOR AG, priority 2015, dated 2020)
Where a SMILES comes first, the peptide text is derived from it. Bridges are numbered along the chain shown (N, C = ends). Roman numbers before positions name the chains, in order. [ ]: non-standard residue; d: D form. Tle = CC(C)(C)[C@H](N)C(=O)O; Nle = CCCC[C@H](N)C(=O)O; Orn = NCCC[C@H](N)C(=O)O; Dab = NCC[C@H](N)C(=O)O; Dap = NC[C@H](N)C(=O)O

Columns and labels:
Format in all cases: cell-based
[1] = test system: human red blood cells (hRBC); experiment: Hemolysis of human red blood cells; details: red cells of human, 1 h
In short: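 Percent lysis of washed human erythrocytes after 1 h at 37° C. with 100 μg/mL peptide, calculated from OD540 of 8-fold diluted supernatant as a fraction of the 2.5% Triton X-100 value.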

[2] = test system: Klebsiella pneumoniae 968733; details: 968733
[3] = test system: Acinetobacter baumannii 872842; details: 872842
[4] = test system: Escherichia coli 926415; details: 926415
[5] = test system: Acinetobacter baumannii DSM 30008; details: DSM 30008
In short: (§1)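 Broth microdilution per CLSI, cation-adjusted MH-II medium, 0.002% (v/v) polysorbate 80 final. Approx. 10^6 CFU/mL inoculum, incubated 35° C for 18-20 h; MIC read as absence of visible growth.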

[6] = test system: Klebsiella pneumoniae SSI #3010; details: SSI #3010
In short: as §1

[7] = test system: Pseudomonas aeruginosa ATCC 27853; details: ATCC 27853
In short: as §1

[8] = test system: Escherichia coli ATCC 25922; details: ATCC 25922
In short: as §1

| SMILES | Klebsiella pneumoniae 968733 MIC [2] [µg/mL] | Acinetobacter baumannii 872842 MIC [3] [µg/mL] | Escherichia coli 926415 MIC [4] [µg/mL] | Acinetobacter baumannii DSM 30008 MIC [5] [µg/mL] | Klebsiella pneumoniae SSI #3010 MIC [6] [µg/mL] | Pseudomonas aeruginosa ATCC 27853 MIC [7] [µg/mL] | Escherichia coli ATCC 25922 MIC [8] [µg/mL] | Hemolysis at 100 μg/mL [1]; 100 [%] | Hemolysis at 100 μg/mL ([1]; 100 μg/mL) [%] |
| --- | --- | --- | --- | --- | --- | --- | --- | --- | --- |
| CCCC[C@@H]1NC(=O)[C@@H]2CCCN2C(=O)[C@H]2CCCN2C(=O)[C@H](CO)NC(=O)[C@H](C)NC(=O)[C@H](C(C)(C)C)NC(=O)[C@H](CCN)NC(=O)[C@H](Cc2c[nH]c3ccccc23)NC(=O)[C@H](CCN)NC(=O)[C@@H](CCC(=O)N[C@H]2CCNC(=O)[C@H]([C@@H](C)O)NC(=O)[C@H](CCN)NC(=O)[C@H](CCN)NC(=O)[C@H](CC(C)C)NC(=O)[C@@H](Cc3ccccc3)NC(=O)[C@H](CCN)NC2=O)NC(=O)[C@H](CCCN)NC(=O)[C@H](CCN)NC(=O)[C@H](Cc2ccc(O)cc2)NC(=O)[C@H](CO)NC1=O [Ex. 1] (I: cyclo([Nle]SY[Dab][Orn][dE][Dab]W[Dab][Tle]AS[dP]P) / II: [Dab][Dab][dF]L[Dab][Dab]T; amide I:6-II:N; lactam II:1-II:C) | 4 | 2 | 1 | 0.125 | 0.5 | 0.5 | 0.25 | 1 |  |
| CCCC[C@@H]1NC(=O)[C@@H]2CCCN2C(=O)[C@H]2CCCN2C(=O)[C@H](CO)NC(=O)[C@H](C)NC(=O)[C@H](C(C)(C)C)NC(=O)[C@H](CCN)NC(=O)[C@H](Cc2c[nH]c3ccccc23)NC(=O)[C@H](CCN)NC(=O)[C@H](CC(=O)N[C@@H](CCN)C(=O)N[C@@H](CCN)C(=O)N[C@H]2CCNC(=O)[C@H]([C@@H](C)O)NC(=O)[C@H](CCN)NC(=O)[C@H](CCN)NC(=O)[C@H](CC(C)C)NC(=O)[C@@H](Cc3ccccc3)NC(=O)[C@H](CCN)NC2=O)NC(=O)[C@H](CCCN)NC(=O)[C@H](CCN)NC(=O)[C@H](Cc2ccc(O)cc2)NC(=O)[C@H](CO)NC1=O [Ex. 4] (I: cyclo([Nle]SY[Dab][Orn]D[Dab]W[Dab][Tle]AS[dP]P) / II: [Dab][Dab][Dab][Dab][dF]L[Dab][Dab]T; amide I:6-II:N; lactam II:3-II:C) | 8 | 2 | 1 | 1 | 1 | 0.25 | 1 | 1 |  |
| CCCC[C@@H]1NC(=O)[C@@H]2CCCN2C(=O)[C@H]2CCCN2C(=O)[C@H]([C@@H](C)O)NC(=O)[C@H](CN)NC(=O)[C@H](C(C)(C)C)NC(=O)[C@@H](NC(=O)[C@H](Cc2c[nH]c3ccccc23)NC(C)=O)CSSC[C@@H](C(=O)N[C@@H](CCN)C(=O)N[C@H](C(=O)N[C@@H](CCN)C(=O)N[C@H]2CCNC(=O)[C@H]([C@@H](C)O)NC(=O)[C@H](CCN)NC(=O)[C@H](CCN)NC(=O)[C@H](CC(C)C)NC(=O)[C@@H](Cc3ccccc3)NC(=O)[C@H](CCN)NC2=O)[C@@H](C)O)NC(=O)[C@H](Cc2ccc(O)cc2)NC(=O)CNC1=O [Ex. 116] (Ac-WC[Tle][Dap]T[dP]P[Nle]GYC[Dab]T[Dab][Dab][Dab][dF]L[Dab][Dab]T; disulfide 2-11; lactam 15-C) | 0.5 | 0.125 | 0.0625 | 0.25 | 0.25 | 1 |  |  | <1 |

Second part, led by results:

| Klebsiella pneumoniae 968733 MIC [2] [µg/mL] | Acinetobacter baumannii 872842 MIC [3] [µg/mL] | Escherichia coli 926415 MIC [4] [µg/mL] | Acinetobacter baumannii DSM 30008 MIC [5] [µg/mL] | Klebsiella pneumoniae SSI #3010 MIC [6] [µg/mL] | Pseudomonas aeruginosa ATCC 27853 MIC [7] [µg/mL] | Escherichia coli ATCC 25922 MIC [8] [µg/mL] | SMILES | Hemolysis at 100 μg/mL [1]; 100 [%] | Hemolysis at 100 μg/mL ([1]; 100 μg/mL) [%] |
| --- | --- | --- | --- | --- | --- | --- | --- | --- | --- |
| 4 | 2 | 2 | 1 | 1 | 0.25 | 0.5 | CCCC[C@@H]1NC(=O)[C@@H]2CCCN2C(=O)[C@H]2CCCN2C(=O)[C@H](CO)NC(=O)[C@H](C)NC(=O)[C@H](C(C)(C)C)NC(=O)[C@H](CCN)NC(=O)[C@H](Cc2c[nH]c3ccccc23)NC(=O)[C@H](CCN)NC(=O)[C@@H](CCC(=O)N[C@@H](CCN)C(=O)N[C@H]2CCNC(=O)[C@H]([C@@H](C)O)NC(=O)[C@H](CCN)NC(=O)[C@H](CCN)NC(=O)[C@H](CC(C)C)NC(=O)[C@@H](Cc3ccccc3)NC(=O)[C@H](CCN)NC2=O)NC(=O)[C@H](CCCN)NC(=O)[C@H](CCN)NC(=O)[C@H](Cc2ccc(O)cc2)NC(=O)[C@H](CO)NC1=O [Ex. 2] (I: cyclo([Nle]SY[Dab][Orn][dE][Dab]W[Dab][Tle]AS[dP]P) / II: [Dab][Dab][Dab][dF]L[Dab][Dab]T; amide I:6-II:N; lactam II:2-II:C) | 1 |  |
| 1 | 2 | 0.25 | 1 | 0.5 | 0.25 | 0.5 | CCCC[C@@H]1NC(=O)[C@@H]2CCCN2C(=O)[C@H]2CCCN2C(=O)[C@H](CO)NC(=O)[C@H](C)NC(=O)[C@H](C(C)(C)C)NC(=O)[C@H](CCN)NC(=O)[C@H](Cc2c[nH]c3ccccc23)NC(=O)[C@H](CCN)NC(=O)[C@H](CCC(=O)N[C@@H](CCN)C(=O)N[C@H]2CCNC(=O)[C@H]([C@@H](C)O)NC(=O)[C@H](CCN)NC(=O)[C@H](CCN)NC(=O)[C@H](CC(C)C)NC(=O)[C@@H](Cc3ccccc3)NC(=O)[C@H](CCN)NC2=O)NC(=O)[C@H](CCCN)NC(=O)[C@H](CCN)NC(=O)[C@H](Cc2ccc(O)cc2)NC(=O)[C@H](CO)NC1=O [Ex. 3] (I: cyclo([Nle]SY[Dab][Orn]E[Dab]W[Dab][Tle]AS[dP]P) / II: [Dab][Dab][Dab][dF]L[Dab][Dab]T; amide I:6-II:N; lactam II:2-II:C) | <1 |  |
| 2 | 1 | 0.5 | 0.5 | 0.5 | 0.5 | 2 | CCCC[C@@H]1NC(=O)[C@@H]2CCCN2C(=O)[C@H]2CCCN2C(=O)[C@H](CO)NC(=O)[C@H](C)NC(=O)[C@H](C(C)(C)C)NC(=O)[C@H](CCN)NC(=O)[C@H](Cc2c[nH]c3ccccc23)NC(=O)[C@H](CCN)NC(=O)[C@@H](CCC(=O)N[C@H](C(=O)N[C@@H](CCN)C(=O)N[C@H]2CCNC(=O)[C@H]([C@@H](C)O)NC(=O)[C@H](CCN)NC(=O)[C@H](CCN)NC(=O)[C@H](CC(C)C)NC(=O)[C@@H](Cc3ccccc3)NC(=O)[C@H](CCN)NC2=O)[C@@H](C)O)NC(=O)[C@H](CCCN)NC(=O)[C@H](CCN)NC(=O)[C@H](Cc2ccc(O)cc2)NC(=O)[C@H](CO)NC1=O [Ex. 5] (I: cyclo([Nle]SY[Dab][Orn][dE][Dab]W[Dab][Tle]AS[dP]P) / II: T[Dab][Dab][Dab][dF]L[Dab][Dab]T; amide I:6-II:N; lactam II:3-II:C) | 1 |  |
